19 compounds from US9926304B2, “1-(arylmethyl)quinazoline-2,4(1H,3H)-diones as PARP inhibitors and the use thereof” (Impact Therapeutics, Inc., priority 2011, dated 2018) can be followed below.

The subject of experiment [1] is Human breast cancer cell line T47D. Description: Cell based caspase-3 activity assay: potentiation of MMS induced apoptosis. Conditions: Homo sapiens, T47D, 24 h, T47D cells, 11.1 μg/ml MMS, 24 hours, intracellular caspase-3 activity; read-out: EC50 (nM), potentiation of the apoptosis inducing activity of MMS. The gist of the method:
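T47D cells were exposed for 24 h to compound plus a minimally apoptotic MMS dose (medium containing 11.1 μg/ml MMS). Lysates were incubated 3 h at 37 °C with (Ac-DEVD)2-R110 caspase-3 substrate (20 μM in added buffer) and read at ex 496/em 520 nm. EC50 came from a sigmoidal fit of RFU versus log concentration.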

The subject of experiment [2] is BRCA-2 deficient CAPAN-1 human pancreatic cancer cells. Description: MTT based cell viability assay: growth inhibition of BRCA-2 deficient CAPAN-1 cells. Conditions: 240 h, compound alone, 10 day assay. From the text: Determination of the cell growth inhibiting activity of 1-(3-(4-(pyrimidin-2-yl)piperazine-1-carbonyl)benzyl)quinazoline-2,4(1H,3H)-dione and analogs on BRCA-2 deficient CAPAN-1 pancreatic duck cancer cells using a MTT based cell viability assay
BRCA-deficient cancer cells are sensitive to PARP inhibition. In the presence of PARP inhibitors, BRCA-deficient cancer cells could not grow and eventually will lead to death of cells. BRCA-2 deficient CAPAN-1 human pancreatic cancer cells were used to test the growth inhibiting activity of substituted 1-(arylmethyl)quinazoline-2,4(1H,3H)-diones. Briefly, CAPAN-1 cells are grown and maintained in IMEM medium supplemented with 20% FBS. The assay takes 10 days to finish. On day 1, 6000 CAPAN-1 cells are seeded to each well of a 96-well plate. The cells are incubated at 37° C. in a cell culture incubator overnight. In the next day, serial dilutions of compounds to be tested and reference compound (AZD2281) were prepared with a 1:3 and 1:10 fashion in DMSO. Ten-fold compound solutions were made by mixing 10 μl DMSO serial dilution solutions with 90 μl fresh growth medium. The cell culture medium was removed and 180 μl fresh media with FBS and 20 μl of compound solutions were added to each well. The final concentration of DMSO was 1%. Cells were then returned to the CO2 cell culture incubator and incubated at 37° C. for two days (day 3 and day 4). On day 5, the same procedure as what was done on day 2 was repeated. Cell culture medium was removed and fresh medium containing serial dilutions of compounds or reference compounds were added. Cells were returned to the CO2 cell culture incubator and incubated for two more days. On day 8, same procedure was repeated again and fresh medium containing the testing compounds or reference compounds were added and incubated for an additional 2 days. On day 10, 20 μl of MTT reagent (5 mg/ml) was added to each well of the cell culture plate and incubated for 4 h. The cell culture media was removed and 100 μl DMSO was added to each well. The 96-well cell culture plates were shaked horizontally for 10 min and readed in a Varioskan Flash plate reader (Thermo Fisher Scientific) at 520 and 690 nm. The obtained 520 nm absorbance readings subtracting corresponding 690 nm reading were analyzed using a commercial graphic software (GraphPad Prism 5) and plotted against the Log scale of the compound concentrations.

Experiment [3] deals with SW620 human colorectal cancer cells. Description: MTT based cell viability assay: potentiation of the growth inhibiting activity of MMS. As to conditions: Homo sapiens, SW-620, 120 h, read-out: IC50 (nM), potentiation of the growth inhibiting activity of MMS, SW620 cells, 1.7 μg/ml MMS, 5 days (120 hours), MTT.
Description: Briefly, SW620 human colorectal cancer cells were used to measure the cell growth inhibiting activity of DNA alkylating anticancer drug MMS. […] SW620 cells were grown and maintained in RPMI1640 (Gibco) medium supplemented with 10% FBS (Hyclone). In the first day of experiment, 4000 cells were seeded to each well of a 96-well cell culture plate and incubated at 37° C. and 5% CO2 in a cell culture incubator overnight. In the next day, the cell culture medium was removed. […] The serial dilutions of the reference compounds and the compounds to be tested were made with a 1:3 and 1:10 fashion in DMSO. The 10-fold concentrated solutions of these compounds were made by mixing 10 μl of the serial dilutions in DMSO with 90 μl fresh medium. The final concentration of DMSO in the medium was 1%. The cells were incubated at 37° C. in 5% CO2 cell culture incubator for additional 5 days (120 hours). Afterwards, the 96-well cell culture plate was taken out and 20 μl of MTT solution was added to each well and incubated at 37° C. for 4 h. The medium was removed and 100 μl DMSO was added to each well. The 96-well cell culture plates were shaked adequately for 10 min and read in a Varioskan Flash plate reader (Thermo Fisher Scientific) at 520 and 690 nm. The data were analyzed by Prism 5 software (GraphPad). The obtained 520 nm absorbance readings subtracting corresponding 690 nm reading were analyzed and plotted against the Log scale of the compound concentrations.

In the case of `O=C(c1ccc(F)c(Cn2c(=O)[nH]c(=O)c3cc(Cl)ccc32)c1)N1CCN(C(=O)C2CCCC2)CC1` [Example 124, 6-Chloro-1-(3-(4-(cyclopentylcarbonyl)piperazine-1-carbonyl)-6-fluorobenzyl)quinazoline-2,4(1H,3H)-dione], in experiment [1], the EC50 (as a rule, the concentration that produces a half-maximal response) is 3.8 nM. The IC50 in experiment [2] worked out at 137 nM; in experiment [3], 9.9 nM.

Take `O=C(c1cccc(Cn2c(=O)[nH]c(=O)c3c(F)cccc32)c1)N1CCN(C(=O)C2CCCC2)CC1` [Example 128, 1-(3-(4-(Cyclopentylcarbonyl)piperazine-1-carbonyl)benzyl)-5-fluoroquinazoline-2,4(1H,3H)-dione]: in experiment [1], the EC50 worked out at 12 nM. The IC50 stood at 442 nM in experiment [2] and 37 nM in experiment [3].

`O=C(c1cc(Cn2c(=O)[nH]c(=O)c3c(F)cccc32)ccc1F)N1CCN(C(=O)C2CCCC2)CC1` [Example 133, 1-(3-(4-(Cyclopentylcarbonyl)piperazine-1-carbonyl)-4-fluorobenzyl)-5-fluoroquinazoline-2,4(1H,3H)-dione]: the EC50 in experiment [1] is 2.1 nM. The IC50 was found to be 22 nM in experiment [2] and 4.1 nM in experiment [3].

On to `O=C(c1cc(Cn2c(=O)[nH]c(=O)c3c(F)cccc32)ccc1F)N1CCN(C(=O)C2CCCCC2)CC1` [Example 134, 1-(3-(4-(Cyclohexylcarbonyl)piperazine-1-carbonyl)-4-fluorobenzyl)-5-fluoroquinazoline-2,4(1H,3H)-dione], for which the EC50 in experiment [1] is 4.7 nM. Moreover, the IC50 is 45 nM in experiment [2] and 5.8 nM in experiment [3].

Regarding `O=C(c1cccs1)N1CCN(C(=O)c2cc(Cn3c(=O)[nH]c(=O)c4c(F)cccc43)ccc2F)CC1` [Example 136, 5-Fluoro-1-(4-fluoro-3-(4-(thiophene-2-carbonyl)piperazine-1-carbonyl)benzyl)quinazoline-2,4(1H,3H)-dione], the concentration for a half-maximal effect (EC50) in experiment [1] stood at 3.2 nM. Moreover, the IC50 came to 40 nM in experiment [2] and 7.1 nM in experiment [3].

As for `O=C(c1cccc(Cn2c(=O)[nH]c(=O)c3cc(F)ccc32)c1)N1CCN(c2ccccn2)CC1` [Example 140, 6-Fluoro-1-(3-(4-(pyridin-2-yl)piperazine-1-carbonyl)benzyl)quinazoline-2,4(1H,3H)-dione], the EC50 in experiment [1] was found to be 8.9 nM. Further, the results for the IC50 in experiment [2] and in experiment [3] were 155 nM and 37 nM, respectively.

Regarding `O=C(c1cccc(Cn2c(=O)[nH]c(=O)c3cc(F)ccc32)c1)N1CCN(C(=O)C2CCCCC2)CC1` [Example 142, 1-(3-(4-(Cyclohexylcarbonyl)piperazine-1-carbonyl)benzyl)-6-fluoroquinazoline-2,4(1H,3H)-dione], in experiment [1], the EC50 is 3.8 nM. Moreover, the figures for the IC50 in experiment [2] and in experiment [3] were 223 nM and 22 nM, respectively.

Consider `O=C(c1cccc(Cn2c(=O)[nH]c(=O)c3cc(F)ccc32)c1)N1CCN(C(=O)C2CCCC2)CC1` [Example 143, 1-(3-(4-(Cyclopentylcarbonyl)piperazine-1-carbonyl)benzyl)-6-fluoroquinazoline-2,4(1H,3H)-dione], for which the EC50 in experiment [1] came to 6 nM. Besides, the figures for the IC50 in experiment [2] and in experiment [3] were 73 nM and 15 nM, respectively.

On to `O=C(c1cc(Cn2c(=O)[nH]c(=O)c3cc(F)ccc32)ccc1F)N1CCN(c2ccccn2)CC1` [Example 145, 6-Fluoro-1-(4-fluoro-3-(4-(pyridin-2-yl)piperazine-1-carbonyl)benzyl)quinazoline-2,4(1H,3H)-dione], for which the EC50 in experiment [1] came to 6.5 nM. For the same compound, the IC50 in experiment [2] is 146 nM; in experiment [3], 12 nM.

For `O=C(c1ccc(F)c(Cn2c(=O)[nH]c(=O)c3cc(F)ccc32)c1)N1CCN(c2ncccn2)CC1` [Example 149, 6-Fluoro-1-(6-fluoro-3-(4-(pyrimidin-2-yl)piperazine-1-carbonyl)benzyl)quinazoline-2,4(1H,3H)-dione], the EC50 in experiment [1] was found to be 5.8 nM. Also, the IC50 stood at 52 nM in experiment [2] and 14 nM in experiment [3].

On to `O=C(c1ccc(F)c(Cn2c(=O)[nH]c(=O)c3cc(F)ccc32)c1)N1CCN(c2ccccn2)CC1` [Example 150, 6-Fluoro-1-(6-fluoro-3-(4-(pyridin-2-yl)piperazine-1-carbonyl)benzyl)quinazoline-2,4(1H,3H)-dione], for which the EC50 in experiment [1] turned out to be 16 nM. Moreover, the results for the IC50 in experiment [2] and in experiment [3] were 176 nM and 25 nM, respectively.

With `O=C(c1ccc(F)c(Cn2c(=O)[nH]c(=O)c3cc(F)ccc32)c1)N1CCN(C(=O)C2CCCCC2)CC1` [Example 152, 1-(3-(4-(Cyclohexylcarbonyl)piperazine-1-carbonyl)-6-fluorobenzyl)-6-fluoroquinazoline-2,4(1H,3H)-dione], the EC50 in experiment [1] is 5.1 nM. Moreover, the IC50 came out at 121 nM in experiment [2] and 13 nM in experiment [3].

As to `O=C(c1ccc(F)c(Cn2c(=O)[nH]c(=O)c3c(F)cccc32)c1)N1CCN(c2ncccn2)CC1` [Example 154, 5-Fluoro-1-(6-fluoro-3-(4-(pyrimidin-2-yl)piperazine-1-carbonyl)benzyl)quinazoline-2,4(1H,3H)-dione], in experiment [1], the 50% effective concentration (EC50) came to 6.7 nM. Also, the IC50 in experiment [2] was found to be 56 nM; in experiment [3], 7.3 nM.

As for `O=C(c1ccc(F)c(Cn2c(=O)[nH]c(=O)c3c(F)cccc32)c1)N1CCN(c2ccccn2)CC1` [Example 155, 5-Fluoro-1-(6-fluoro-3-(4-(pyridin-2-yl)piperazine-1-carbonyl)benzyl)quinazoline-2,4(1H,3H)-dione], the EC50 in experiment [1] turned out to be 12 nM. Also, the IC50 in experiment [2] stood at 142 nM; in experiment [3] it was 23 nM.

On to `O=C(c1ccc(F)c(Cn2c(=O)[nH]c(=O)c3c(F)cccc32)c1)N1CCN(C(=O)C2CCCCC2)CC1` [Example 157, 1-(3-(4-(Cyclohexylcarbonyl)piperazine-1-carbonyl)-6-fluorobenzyl)-5-fluoroquinazoline-2,4(1H,3H)-dione], for which the EC50 in experiment [1] is 26 nM. Moreover, the IC50 in experiment [2] was found to be 202 nM; in experiment [3], 18 nM.

As to `O=C(c1cccc(Cn2c(=O)[nH]c(=O)c3ccc(Cl)cc32)c1)N1CCN(c2ncccn2)CC1` [Example 161, 7-Chloro-1-(3-(4-(pyrimidin-2-yl)piperazine-1-carbonyl)benzyl)quinazoline-2,4(1H,3H)-dione], the EC50 in experiment [1] was found to be 405 nM. Besides, the IC50 turned out to be 3550 nM in experiment [2] and 506 nM in experiment [3].

With `O=C(c1cc(Cn2c(=O)[nH]c(=O)c3c(Cl)cccc32)ccc1F)N1CCN(C(=O)C2CCC2)CC1` [Example 168, 5-Chloro-1-(3-(4-(cyclobutylcarbonyl)piperazine-1-carbonyl)-4-fluorobenzyl)quinazoline-2,4(1H,3H)-dione], in experiment [1], the EC50 turned out to be 3.8 nM. The IC50 in experiment [2] amounted to 1460 nM; in experiment [3] it was 15 nM.

`O=C(c1ccco1)N1CCN(C(=O)c2cc(Cn3c(=O)[nH]c(=O)c4c(F)cccc43)ccc2F)CC1` [Example 172, 5-Fluoro-1-(4-fluoro-3-(4-(furan-2-carbonyl)piperazine-1-carbonyl)benzyl)quinazoline-2,4(1H,3H)-dione]: in experiment [1], the EC50 was 3.2 nM. Also, the IC50 in experiment [2] stood at 389 nM; in experiment [3] it was 9.5 nM.

On to `O=C(c1cc(F)cc(Cn2c(=O)[nH]c(=O)c3c(F)cccc32)c1)N1CCN(c2ncccn2)CC1` [Example 176, 5-Fluoro-1-(5-fluoro-3-(4-(pyrimidin-2-yl)piperazine-1-carbonyl)benzyl)quinazoline-2,4(1H,3H)-dione], for which the EC50 in experiment [1] turned out to be 10 nM. Further, the values for the IC50 in experiment [2] and in experiment [3] were 187 nM and 15 nM, respectively.
